Measured values from the NIST ThermoML archive (doi:10.1021/je401120a).

Assay: xn = mol fraction of the nth substance listed
Conditions: 313.15 K, 101 kPa, Liquid; for electrical conductivity: Crison conductimeter (model GLP31); for speed of sound: Pulse-echo method; for mass density: Vibrating tube method

CCC[n+]1ccccc1.F[B-](F)(F)F [1-propylpyridinium tetrafluoroborate] + CO
Conditions	electrical conductivity [S/m]	mass density [kg/m3]	speed of sound [m/s]	viscosity [mPa·s]
x1 = 0.028	–	829.037	1104.3	–
x1 = 0.0313	3.41	–	–	–
x1 = 0.0365	3.77	–	–	–
x1 = 0.0422	4.13	–	–	–
x1 = 0.0505	–	–	–	0.7578
x1 = 0.0577	–	876.892	1151.5	–
x1 = 0.0658	4.95	–	–	–
x1 = 0.0775	5.27	–	–	–
x1 = 0.0894	5.59	–	–	–
x1 = 0.0967	–	927.831	1204.8	–
x1 = 0.0993	–	–	–	1.273
x1 = 0.1294	6.03	–	–	–
x1 = 0.1409	6.12	–	–	–
x1 = 0.1459	–	979.474	1261.3	–
x1 = 0.1703	6.3	–	–	–
x1 = 0.191	–	–	–	2.523
x1 = 0.1952	–	1020.19	1314.3	–
x1 = 0.2002	6.26	–	–	–
x1 = 0.2456	6.05	–	–	–
x1 = 0.2819	5.68	–	–	–
x1 = 0.291	–	–	–	4.303
x1 = 0.3213	–	1094.6	1409.3	–
x1 = 0.3507	5.15	–	–	–
x1 = 0.3918	–	–	–	6.052
x1 = 0.3937	4.76	–	–	–
x1 = 0.4002	–	1127.34	1453.2	–
x1 = 0.4334	4.32	–	–	–
x1 = 0.464	3.91	–	–	–
x1 = 0.4929	–	–	–	8.501
x1 = 0.4965	–	1157.84	1492.7	–
x1 = 0.5398	3.26	–	–	–
x1 = 0.5988	–	1183.22	1527.3	–
x1 = 0.6117	–	–	–	12.48
x1 = 0.635	2.5	–	–	–
x1 = 0.6904	–	1201.32	1550.3	–
x1 = 0.7331	–	–	–	20
x1 = 0.7918	1.5	–	–	–
x1 = 0.7923	–	–	–	25.3
x1 = 0.8011	–	1218.9	1573.6	–
x1 = 0.8425	–	–	–	31.76
x1 = 0.8824	–	1229.83	1589.4	–
x1 = 0.894	1.05	–	–	–
x1 = 0.8956	–	–	–	38.87
x1 = 0.9384	0.94	–	–	–
x1 = 0.94	–	1236.33	1598.5	–
x1 = 0.9447	–	–	–	46.64
x1 = 1	0.799	1242.43	1606.3	56.02
